Measured values as given in patent US6950757B2, “Screening methods for identifying ligands” (Emerald BioStructures, Inc., priority 2001, dated 2005).

Experiments:
Format in all cases: binding
[1] = target: T1, topo70-DNA covalent complex (Form 7 apo-crystals) (Homo sapiens, UniProt P11387); test: Crystal cracking of Form 7 crystals (crystal-cracking assay); conditions: 16° C., approximately 3 hours
T1 construct: human topoisomerase I construct of residues Lys175 to Phe765; made in house; host or cells: baculovirus-insect cell (SF9)
T1 sequence (P11387 175-765): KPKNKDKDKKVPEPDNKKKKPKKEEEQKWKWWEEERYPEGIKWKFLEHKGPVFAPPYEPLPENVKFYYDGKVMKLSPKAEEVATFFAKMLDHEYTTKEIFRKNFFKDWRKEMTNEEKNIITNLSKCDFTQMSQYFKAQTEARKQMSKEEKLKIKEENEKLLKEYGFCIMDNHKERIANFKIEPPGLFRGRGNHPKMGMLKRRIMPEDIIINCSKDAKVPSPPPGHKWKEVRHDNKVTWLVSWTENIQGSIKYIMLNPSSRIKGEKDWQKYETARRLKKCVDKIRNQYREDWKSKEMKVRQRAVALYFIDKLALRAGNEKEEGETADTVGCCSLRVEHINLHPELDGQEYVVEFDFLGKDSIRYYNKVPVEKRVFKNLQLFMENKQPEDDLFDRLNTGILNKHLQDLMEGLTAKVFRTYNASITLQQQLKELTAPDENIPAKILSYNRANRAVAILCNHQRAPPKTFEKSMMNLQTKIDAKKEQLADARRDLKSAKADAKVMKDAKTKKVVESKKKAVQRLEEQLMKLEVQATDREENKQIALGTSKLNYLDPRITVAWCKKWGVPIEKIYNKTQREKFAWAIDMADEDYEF
From the text: Cracking of the crystal after exposure to the potential ligand(s) indicates binding between at least one potential ligand and the macromolecule. This assay is referred to herein as the “crystal-cracking” assay.
The crystal cracking assay of the invention involves the development of optimized crystal growth conditions that depend on the absence of the ligand to produce a supply of macromolecule crystals, referred to herein as apo-crystals, then soaking the apo-crystals in a solution containing one or more potential ligands. If a ligand actually binds to the macromolecule, it initiates a conformational change in the crystal resulting in an observable cracking of the crystal.
Several rounds of similar optimization screening experiments eventually led to the identification of a definitive crystallization condition that produces crystals of the topo70-DNA covalent complex only in the absence of Topotecan (designate Form 7). The Form 7 crystals were grown at 16° C. under optimized conditions by vapor diffusion equilibration against a 500 microliter reservoir solution of 10% PEG 8000, 100 mM Tris-HCl pH 8.0, 100 mM Na/K phosphate pH 6.2, 100 mM KCl, and 10 mM DTT. The sitting drop crystallizations were prepared in drop chambers by mixing 2 microliters of reservoir solution with 2 microliters of 0.1 mM duplex DNA substrate in 6 mM NaCl, and 2 microliters 4 mg/ml topo70 in 10 mM Tris-HCl pH 7.5, 1 mM EDTA, and 1 mM DTT.
In order to test the effects of Topotecan and other topo I poisons on the integrity of Form 7 crystals, crystallization drops containing Form 7 crystals were subjected to the following treatments:
1. Injection of 3 microliters of a buffer solution containing 100 mM MES pH 6.3, and 100 mM Na/K phosphate pH 6.2 (buffer only control).
2. Injection of 3 microliters of 100 mM MES pH 6.3, 100 mM Na/K phosphate pH 6.2, and 0.32 mM Topotecan.
3. Injection of 3 microliters of 100 mM MES pH 6.3, 100 mM Na/K phosphate pH 6.2, 13% v/v DMSO, and 0.64 mM camptothecin.
4. […]

[2] = target: T2, topo70-DNA covalent complex (Homo sapiens, UniProt P11387); test: Crystal growth assay (crystal growth dependence on ligand), T80P CBS-cross solutions; conditions: 16° C.
T2 construct: human topoisomerase I construct of residues Lys175 to Phe765; made in house; host or cells: baculovirus-insect cell (SF9)
T2 sequence (P11387 175-765): T1 sequence (P11387 175-765)
Method: The chemical components of each crystallization formulation were classified as being either a crystallant, buffer, or salt. The various crystallants were as follows:
CBS-cross crystallization screening formulations were prepared with all possible combinations of crystallants, buffers and salts.
In one set of crystallization experiments, the T80P crystallization screen was used in a Combinatorial Clover Plate developed by Emerald BioStructures, Inc. [Kim et al.], which allows for the rapid set up of multiple crystallizations in a common vapor diffusive environment.
The 24 reservoir chambers of the Combinatorial Clover Plate were filled with 1.0 milliliter of each of the 24 different T80P formulations. Once the T80P formulations had been individually placed into the reservoir chambers, 2 microliters of each individual crystallization screening formulation was placed into each of the four the sitting drop chambers that are connected to the common reservoir by dedicated vapor diffusion channels. This was followed by the addition of 1 microliter of duplex suicide oligonucleotide substrate (0.05 mM duplex, 6 mM NaCl) into the drop chamber.
The duplex was mixed with the crystallization screening solution by repeated pipetting. This was followed by the addition 0.1 microliter of 10 mM Topotecan to the upper two drop chambers of each crystallization clover. […]

[3] = target: T2, topo70-DNA covalent complex; test: Crystallization trials with VII-2 solutions in the absence or presence of Topotecan; conditions: condition VII-2 #3; 1 microliter of 1 mM ligand in water vs water only; 16° C., several days
Method: The four different VII-2 formulations each contained one or more of the chemical components found in the lead crystallization conditions, plus additional components such as 10 mM DTT. The four VII-2 crystallization conditions were as follows:
A Cryschem tray was used to screen each of the four VII-2 crystallization solutions for their ability to promote crystallization of topo70-DNA complexes in the absence or presence of Topotecan, an analogue of camptothecin. The crystallization experiments were set up by first placing 500 microliters of the VII-2 screening solutions in duplicate individual reservoir chambers. Next, 3 microliters of each reservoir solution was placed into the drop chambers. The drop chamber solutions were then mixed by pipetting with 1.5 microliters of 0.05 mM suicide duplex oligonuceotide substrate in 6 mM NaCl. One microliter of 1 mM Topotecan in pure water or 1 microliter of pure water only was added to each of the duplicate drop chambers. Then 2 microliters of topo70 at 3 mg/ml in 10 mM Tris-HCl pH 7.5, 1 mM EDTA, and 1 mM DTT was added to each of the drop chambers. The crystallization tray was sealed with crystal clear sealing tape (marketed by Manco, Inc. Avon, Ohio), and incubated at 16° C.

[4] = injection of 3 microliters of 0.64 mM ligand in 100 mM MES pH 6.3, 100 mM Na/K phosphate pH 6.2, 13% v/v DMSO

`CC[C@@]1(O)C(=O)OCc2c1cc1n(c2=O)Cc2cc3cc4c(cc3nc2-1)OCO4` [10,11 MDO-camptothecin, 10,11 MDO camptothecin] was tested. Which “effect on integrity of Form 7 crystals (crystal cracking)” value [1, 4] did it give?
The value was “had dissolved leaving only a trace pile of crystal bits”.

For `O=C(O)CCCn1c2c(c3ccccc3c1=O)C(=O)c1ccccc1-2` [MJ-II-38], which “ligand-dependent crystal growth of ternary complex crystals” value ([2]; T80P #10, 0.5 microliter of 1 mM AG260 in 100% DMSO or 0.3 microliter of 1 mM MJ-II-38 in 90% v/v DMSO, several days) is on record?
The value was “plate like crystals grew”.

What does the source list for `CC[C@@]1(O)C(=O)OCc2c1cc1n(c2=O)Cc2cc3c(CN(C)C)c(O)ccc3nc2-1` [Topotecan]?
ligand-dependent crystal growth (Form 9 crystals) ([2]; T80P #9 and T80P #10, 0.1 microliter of 10 mM ligand, day 28, no crystals when ligand absent): produced crystals of distinct block morphology when Topotecan was present; effect on integrity of Form 7 crystals (crystal cracking) ([1]; injection of 3 microliters of 0.32 mM ligand in 100 mM MES pH 6.3, 100 mM Na/K phosphate pH 6.2): showed visible signs of micro cracks throughout the crystals; growth of putative topo70-DNA covalent complex crystals (Form 7) with ligand present vs absent [3]: grow in condition VII-2 #3 only when Topotecan was absent

Which “effect on integrity of Form 7 crystals (crystal cracking)” value [1, 4] does the source give for `CC[C@@]1(O)C(=O)OCc2c1cc1n(c2=O)Cc2cc3ccccc3nc2-1` [camptothecin] here?
Its value is “showed visible signs of micro cracks throughout the crystals”.
